Reference: publication PMC11872507, “Lasso peptides sviceucin and siamycin I exhibit anti-virulence activity and restore vancomycin effectiveness in vancomycin-resistant pathogens” (iScience, 2025)
≈ marks a conversion by molar mass, not a printed value.

Experiments:
E. faecalis V583 [1] = assay: Checkerboard broth microdilution; assay type: cell-based; conditions: Enterococcus faecalis, control, vancomycin alone
Excerpt: Since sviceucin and siamycin I inhibit signal transduction of the FsrAC TCS in vivo, we next wondered if the lasso peptides would also target other TCSs. In E. faecalis, the VanRS TCS regulates resistance to vancomycin, an antibiotic of clinical importance. The minimum inhibitory concentrations (MICs) of this antibiotic in combination with the lasso peptides were thus determined for clinically relevant Enterococcus and S. aureus strains from our in-house collection. The chosen concentrations of the peptides (2 μM of siamycin I and 10 μM of sviceucin) are the lowest subinhibitory concentrations that allow the maximum synergy with vancomycin, as determined by the checkerboard method on the E. faecalis V583 strain (Table S1).

[2] = system: V583 ΔvanSB-vanRB::vanS-vanR; assay: Vancomycin MIC, microdilution; assay type: cell-based; conditions: Enterococcus faecalis; vancomycin alone (control); VanA-type transduction system, VanB-type resistance genes
Protocol: (§1) To further support this, we investigated the origin of the different activity spectra of sviceucin and siamycin I between VanA- and VanB-type vancomycin resistance. We first replaced vanSB by vanS in the VanB-type strain E. faecalis V583. VanS-VanRB strain was sensitive to vancomycin (MIC = 2 μg/mL), probably because of an impaired signal transduction between VanS and VanRB. To bypass this issue, we replaced the vanRBSB-PvanYB fragment by the vanRS-PvanH fragment from a VanA-type operon, resulting in a VanA-type transduction system fused to VanB-type resistance genes.

VanS-VanRB strain = assay: Vancomycin MIC, microdilution; assay type: cell-based; conditions: Enterococcus faecalis; vanSB replaced by vanS in V583
Protocol: as §1

V583 ΔvanB::vanA = assay: Vancomycin MIC, microdilution; assay type: cell-based; conditions: Enterococcus faecalis; vancomycin alone (control)
Protocol: as §1

E. faecalis V583 [3] = assay: microbe, parasite or virus in culture; assay type: cell-based, Enterococcus faecalis
E. faecium 1 230 933 = assay: microbe, parasite or virus in culture; assay type: cell-based, Enterococcus faecium; conditions: Enterococcus faecium, 1230933, read-out: Vancomycin MIC
E. faecalis V583 ΔvanB = assay: microbe, parasite or virus in culture; assay type: cell-based, Enterococcus faecalis; conditions: Enterococcus faecalis, read-out: Vancomycin MIC
E. faecalis JH2-2 08048 = assay: microbe, parasite or virus in culture; assay type: cell-based, Enterococcus faecalis; conditions: Enterococcus faecalis, JH2208048, read-out: Vancomycin MIC
Protocol: (§2) The MIC of vancomycin was determined by the microdilution method described in the guidelines of the European Committee on Antimicrobial Susceptibility Testing (EUCAST 2024, v14.0 Breakpoint Tables).[58] For enterococci, GM17 medium was used instead of CAMH medium since enterococci cannot degrade starch, the main carbohydrate of MH medium. 2-fold serial dilutions of the tested antibiotic were performed to obtain concentrations ranging from 0.5 to 512 μg/mL. LP were then added to the wells at the desired concentration. The medium was inoculated with a final inoculum of 5 × 10^5 CFU/mL. The MIC is the lowest concentration that prevents visible in vitro growth.

V583 ΔvanSB = assay: Vancomycin MIC, microdilution; assay type: cell-based; conditions: Enterococcus faecalis; vancomycin alone (control)
Protocol: The MIC of vancomycin was determined by the microdilution method described in the guidelines of the European Committee on Antimicrobial Susceptibility Testing (EUCAST 2024, v14.0 Breakpoint Tables).[58] […] 2-fold serial dilutions of the tested antibiotic were performed to obtain concentrations ranging from 0.5 to 512 μg/mL. LP were then added to the wells at the desired concentration. The medium was inoculated with a final inoculum of 5 × 10^5 CFU/mL. The MIC is the lowest concentration that prevents visible in vitro growth.

[4] = system: V583 ΔvanSBmalT::vanR^D53E; assay: Vancomycin MIC, microdilution; assay type: cell-based; conditions: Enterococcus faecalis; vancomycin alone (control); phosphomimetic VanR^D53E
Protocol: as §2

E. faecalis merz96 = assay: microbe, parasite or virus in culture; assay type: cell-based, Enterococcus faecalis; conditions: Enterococcus faecalis, MERZ96, read-out: Vancomycin MIC
S. aureus T-SAR12 VRSA.B = assay: microbe, parasite or virus in culture; assay type: cell-based, Staphylococcus aureus; conditions: Staphylococcus aureus, VRSA, read-out: Vancomycin MIC
Protocol: as §2

S. aureus T-SAR12 VRSA.A = assay: microbe, parasite or virus in culture; assay type: cell-based, Staphylococcus aureus; conditions: Staphylococcus aureus, VRSA, read-out: Vancomycin MIC
Protocol: as §2

V583 vanSB^D398E = assay: Vancomycin MIC, microdilution; assay type: cell-based; conditions: Enterococcus faecalis; vancomycin alone (control)
V583 vanSB^S402I = assay: Vancomycin MIC, microdilution; assay type: cell-based; conditions: Enterococcus faecalis; vancomycin alone (control)
E. faecalis HIP11704 = assay: microbe, parasite or virus in culture; assay type: cell-based, Enterococcus faecalis; conditions: Enterococcus faecalis, HIP11704, read-out: Vancomycin MIC
SiaA = assay: Vancomycin MIC, microdilution; assay type: cell-based, Enterococcus faecalis
Protocol: as §2
(§3) Resistant clones to sviceucin were selected by plating bacteria on GM17 agar medium supplemented with vancomycin at 32 μg/mL and sviceucin at 10 μM. Growth and MIC of vancomycin and sviceucin of the resistant clones were tested. The selection for siamycin I resistance was done by performing serial passages of bacteria in GM17 medium supplemented with vancomycin 10 μg/mL and increasing concentrations of siamycin I from 0.5 to 5 μM. Single nucleotide polymorphism (SNPs) analysis was performed on the sequenced gDNA of each selected resistant mutant.

Svic1 = assay: Vancomycin MIC, microdilution; assay type: cell-based, Enterococcus faecalis
Protocol: as §2, §3

E. faecalis V583 [5] = assay: Vancomycin MIC with nanoemulsions; assay type: cell-based, Enterococcus faecalis; conditions: with blank NEs
Protocol: The formulation of the nanoemulsions was based on the spontaneous nanoemulsification method previously described by Séguy et al.[41] and transposed to lasso peptides. The present nanoemulsions were developed from anhydrous mixtures composed of excipients already described in the European Pharmacopeia (World Health Organization, 2018) and already proven to be hemocompatible on human whole blood. Monodisperse nanoemulsions could be formulated at a drug payload of 400 μg/mL for siamycin I. At these concentrations, the drug added to the anhydrous mixture during the formulation process appeared to be completely dissolved. After the addition of the aqueous phase, a homogeneous colloidal suspension was observed. The nanoemulsions were characterized in terms of granulometric and physicochemical properties (Table S6). The hydrodynamic diameter, zeta potential, and PDI were not changed relative to the blank nanoemulsions, remaining lower than 0.25, indicating the presence of a monodispersed population.

Svic1 ΔvanB = assay: Vancomycin MIC, microdilution; assay type: cell-based; conditions: Enterococcus faecalis; vancomycin alone (control)
[6] = Enterococcus faecalis, read-out: Vancomycin MIC

`CN[C@H](CC(C)C)C(=O)N[C@H]1C(=O)N[C@@H](CC(N)=O)C(=O)N[C@H]2C(=O)N[C@H]3C(=O)N[C@H](C(=O)N[C@H](C(=O)O)c4cc(O)cc(O)c4-c4cc3ccc4O)[C@H](O)c3ccc(c(Cl)c3)Oc3cc2cc(c3O[C@@H]2O[C@H](CO)[C@@H](O)[C@H](O)[C@H]2O[C@H]2C[C@](C)(N)[C@H](O)[C@H](C)O2)Oc2ccc(cc2Cl)[C@H]1O` [Vancomycin] was tested, and the MIC (E. faecalis V583 [1]) was 32 µg/mL, the MIC [2] was 32 µg/mL (≈ 22.1 µM) and the MIC (VanS-VanRB strain) was 2 µg/mL (≈ 1.38 µM). For the same molecule, the MIC (V583 ΔvanB::vanA) was 32 µg/mL (≈ 22.1 µM), the MIC (E. faecalis V583 [3]; Enterococcus faecalis, V583, read-out: Vancomycin MIC) was 32 µg/mL (≈ 22.1 µM) and the “Vancomycin MIC” value (E. faecalis V583 [3]; vancomycin alone (control, 1:1 water:methanol formulation), GM17, 5 × 10^5 CFU/mL, VanB) was 32 µg/mL. It also gave an MIC (E. faecium 1 230 933) of 512 µg/mL (≈ 353 µM), an MIC (E. faecalis V583 ΔvanB) of 2 µg/mL (≈ 1.38 µM) and an MIC (E. faecalis JH2-2 08048) of 64 µg/mL (≈ 44.2 µM). The MIC (V583 ΔvanSB) was 2 µg/mL (≈ 1.38 µM), the MIC [4] was 32 µg/mL (≈ 22.1 µM) and the MIC (E. faecalis merz96) was 32 µg/mL (≈ 22.1 µM). It also gave an MIC (S. aureus T-SAR12 VRSA.B) of 64 µg/mL (≈ 44.2 µM), an MIC (S. aureus T-SAR12 VRSA.A) greater than 512 µg/mL and an MIC (V583 vanSB^D398E) of 128 µg/mL (≈ 88.3 µM). The MIC (V583 vanSB^S402I) was 128 µg/mL (≈ 88.3 µM), the MIC (E. faecalis HIP11704) was 1020 µg/mL (≈ 707 µM) and the MIC (SiaA; [6]) was 128 µg/mL (≈ 88.3 µM). The “fold increase of the MIC of vancomycin vs wild-type” value (SiaA; vancomycin alone) was 4 fold, the “Vancomycin MIC” value (SiaA; {}) was 128 µg/mL and the MIC (Svic1; [6]) was 128 µg/mL (≈ 88.3 µM). For the same molecule, the “fold increase of the MIC of vancomycin vs wild-type” value (Svic1; vancomycin alone) was 4 fold, the “Vancomycin MIC” value (Svic1; {}) was 128 µg/mL and the “Vancomycin MIC” value (E. faecalis V583 [5]) was 32. It also gave an MIC (Svic1 ΔvanB) of 2 µg/mL (≈ 1.38 µM).
